In article PMC5320564 (Journal of molecular biology, 2011):

Legend:
EcPhnD-K181C:IANBD = EcPhnD-K181C:IANBD (Escherichia coli, UniProt P16682, K207C); assay: biochemical; assay type: binding
EcPhnD-Q267C:acrylodan = details: read-out: Phosphonate affinities (Kd); cited from earlier work
EcPhnD87-cpGFP = assay type: binding, Escherichia coli
EcPhnD-Q17C:IANBD = EcPhnD-Q17C:IANBD (Escherichia coli, UniProt P16682, Q43C); assay type: binding
[1] = target: EcPhnD90-cpGFP.L1ADΔΔ.L297R,L301R (Escherichia coli, UniProt Q1R3F7, L323R/L327R, form not given); assay type: binding
EcPhnD142-cpGFP = assay type: binding, Escherichia coli
EcPhnD = EcPhnD (Escherichia coli, UniProt P16682); details: read-out: affinity; cited from earlier work
[2] = system: EcPhnD with cpGFP inserted at position 147; assay type: binding, Escherichia coli
crystal structure = target: the molecule itself; assay: crystal structure

Chain of EcPhnD-K181C:IANBD (P16682 27-338 K207C): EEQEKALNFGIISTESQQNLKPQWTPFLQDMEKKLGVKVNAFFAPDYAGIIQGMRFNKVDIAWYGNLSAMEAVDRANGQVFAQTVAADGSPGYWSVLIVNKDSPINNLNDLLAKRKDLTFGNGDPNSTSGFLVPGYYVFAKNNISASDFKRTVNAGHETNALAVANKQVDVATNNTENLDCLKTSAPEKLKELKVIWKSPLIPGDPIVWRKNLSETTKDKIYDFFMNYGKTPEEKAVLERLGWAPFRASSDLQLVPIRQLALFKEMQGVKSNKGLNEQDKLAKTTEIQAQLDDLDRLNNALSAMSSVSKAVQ
Chain of EcPhnD-Q17C:IANBD (P16682 27-338 Q43C): as the sequence (P16682 27-338 K207C) above, with Q17C, C181K counted along it

For O=C(O)CNCP(=O)(O)O [Glyphosate (GP), Glyphosate], the Kd (EcPhnD-K181C:IANBD) is listed as 260000 ± 20000 nM and the Kd (EcPhnD-Q267C:acrylodan) is listed as 650000 nM.

In the case of NCCP(=O)(O)O [2AEP, 2-aminoethylphosphonate], the “affinity for 2AEP by ITC (in words)” value (EcPhnD87-cpGFP) is reported as “high affinity”, the Kd (EcPhnD-Q17C:IANBD) is reported as 11 ± 5 nM and the ΔF/F0 (EcPhnD-Q17C:IANBD) is reported as 1.2±0.1. For the same molecule, the Kd (EcPhnD-K181C:IANBD) was 540 ± 40 nM, the ΔF/F0 (EcPhnD-K181C:IANBD) was −0.72±0.01 and the ΔF/F0 increase [1] was 1.6. The Kd ([1]; read-out: Phosphonate affinities (Kd)) was 37000 ± 7000 nM, the Kd (EcPhnD-Q267C:acrylodan) was 5 nM and the “affinity for 2AEP by ITC (in words)” value (EcPhnD142-cpGFP) was “dramatically decreased affinity”. The Kd (EcPhnD) was about 5 nM and the “affinity for 2AEP by ITC (in words)” value [2] was “dramatically decreased affinity”.

B1: Selenomethionine-substituted EcPhnD (natural protein, E. coli, UniProt P16682 27-338, looked up)
chain: EEQEKALNFGIISTESQQNLKPQWTPFLQDMEKKLGVKVNAFFAPDYAGIIQGMRFNKVDIAWYGNLSAMEAVDRANGQVFAQTVAADGSPGYWSVLIVNKDSPINNLNDLLAKRKDLTFGNGDPNSTSGFLVPGYYVFAKNNISASDFKRTVNAGHETNALAVANKQVDVATNNTENLDKLKTSAPEKLKELKVIWKSPLIPGDPIVWRKNLSETTKDKIYDFFMNYGKTPEEKAVLERLGWAPFRASSDLQLVPIRQLALFKEMQGVKSNKGLNEQDKLAKTTEIQAQLDDLDRLNNALSAMSSVSKAVQ
modifications: selenomethionine in place of methionine
For B1, the “stoichiometry N” value (crystal structure) was 2.

B2: EcPhnD H157A (natural protein, E. coli, UniProt P16682 27-338, looked up)
chain: EEQEKALNFGIISTESQQNLKPQWTPFLQDMEKKLGVKVNAFFAPDYAGIIQGMRFNKVDIAWYGNLSAMEAVDRANGQVFAQTVAADGSPGYWSVLIVNKDSPINNLNDLLAKRKDLTFGNGDPNSTSGFLVPGYYVFAKNNISASDFKRTVNAGAETNALAVANKQVDVATNNTENLDKLKTSAPEKLKELKVIWKSPLIPGDPIVWRKNLSETTKDKIYDFFMNYGKTPEEKAVLERLGWAPFRASSDLQLVPIRQLALFKEMQGVKSNKGLNEQDKLAKTTEIQAQLDDLDRLNNALSAMSSVSKAVQ
For B2, the “stoichiometry N” value (crystal structure) was 2.
